Measurements reported in the NIST ThermoML archive (doi:10.1016/j.tca.2004.11.022).

Experiments:
[1] = xn = mol fraction of the nth substance listed; details: 101 kPa, Liquid; for mass density: Vibrating tube method; for speed of sound: Pulse-echo method
[2] = molar heat capacity at constant pressure; xn = mol fraction of the nth substance listed; details: 101 kPa, Liquid, Small sample (50 mg) DSC

CCCCCCCCC [nonane] + COC(=O)OC
Details	mass density [kg/m3]	molar heat capacity at constant pressure [J/K/mol]	speed of sound [m/s]
[1], 288.15 K, x2 = 0.05335	729.39	–	–
[1], 288.15 K, x2 = 0.1009	736.94	–	–
[1], 288.15 K, x2 = 0.1998	754.47	–	–
[1], 288.15 K, x2 = 0.2963	774.22	–	–
[1], 288.15 K, x2 = 0.3965	798.13	–	–
[1], 288.15 K, x2 = 0.4978	826.3	–	–
[1], 288.15 K, x2 = 0.5983	859.19	–	–
[1], 288.15 K, x2 = 0.6976	897.72	–	–
[1], 288.15 K, x2 = 0.7982	944.58	–	–
[1], 288.15 K, x2 = 0.8985	1002.3	–	–
[1], 293.15 K, x2 = 0.05335	725.45	–	–
[1], 293.15 K, x2 = 0.1009	732.86	–	–
[1], 293.15 K, x2 = 0.1998	750.26	–	–
[1], 293.15 K, x2 = 0.2963	769.82	–	–
[1], 293.15 K, x2 = 0.3965	793.41	–	–
[1], 293.15 K, x2 = 0.4978	821.39	–	–
[1], 293.15 K, x2 = 0.5983	853.92	–	–
[1], 293.15 K, x2 = 0.6976	892.23	–	–
[1], 293.15 K, x2 = 0.7982	938.72	–	–
[1], 293.15 K, x2 = 0.8985	996.2	–	–
[1], 298.15 K, x2 = 0.05335	721.48	–	1198.5
[1], 298.15 K, x2 = 0.1009	728.79	–	1191.8
[1], 298.15 K, x2 = 0.1998	746.03	–	1180
[1], 298.15 K, x2 = 0.2963	765.4	–	1170.5
[1], 298.15 K, x2 = 0.3965	788.73	–	1162.4
[1], 298.15 K, x2 = 0.4978	816.45	–	1156.8
[1], 298.15 K, x2 = 0.5983	848.67	–	1153.4
[1], 298.15 K, x2 = 0.6976	886.73	–	1153.5
[1], 298.15 K, x2 = 0.7982	932.9	–	1158.2
[1], 298.15 K, x2 = 0.8985	990.1	–	1171.2
[1], 308.15 K, x2 = 0.05335	713.45	–	–
[1], 308.15 K, x2 = 0.1009	720.68	–	–
[1], 308.15 K, x2 = 0.1998	737.48	–	–
[1], 308.15 K, x2 = 0.2963	756.46	–	–
[1], 308.15 K, x2 = 0.3965	779.36	–	–
[1], 308.15 K, x2 = 0.4978	806.49	–	–
[1], 308.15 K, x2 = 0.5983	838.24	–	–
[1], 308.15 K, x2 = 0.6976	875.62	–	–
[1], 308.15 K, x2 = 0.7982	921.26	–	–
[1], 308.15 K, x2 = 0.8985	977.7	–	–
[2], 288.15 K, x2 = 0.05262	–	273.59	–
[2], 288.15 K, x2 = 0.1012	–	267.97	–
[2], 288.15 K, x2 = 0.1514	–	262.27	–
[2], 288.15 K, x2 = 0.2001	–	256.97	–
[2], 288.15 K, x2 = 0.297	–	247.1	–
[2], 288.15 K, x2 = 0.4018	–	237.24	–
[2], 288.15 K, x2 = 0.452	–	232.75	–
[2], 288.15 K, x2 = 0.5014	–	228.4	–
[2], 288.15 K, x2 = 0.5514	–	223.85	–
[2], 288.15 K, x2 = 0.6024	–	218.72	–
[2], 288.15 K, x2 = 0.6477	–	213.45	–
[2], 288.15 K, x2 = 0.6978	–	206.69	–
[2], 288.15 K, x2 = 0.7944	–	191.68	–
[2], 288.15 K, x2 = 0.845	–	183.74	–
[2], 288.15 K, x2 = 0.9016	–	175.65	–
[2], 288.15 K, x2 = 0.9486	–	169.8	–
[2], 298.15 K, x2 = 0.05262	–	277.51	–
[2], 298.15 K, x2 = 0.1012	–	271.68	–
[2], 298.15 K, x2 = 0.1514	–	265.73	–
[2], 298.15 K, x2 = 0.2001	–	260.11	–
[2], 298.15 K, x2 = 0.297	–	249.53	–
[2], 298.15 K, x2 = 0.4018	–	238.51	–
[2], 298.15 K, x2 = 0.452	–	233.42	–
[2], 298.15 K, x2 = 0.5014	–	228.22	–
[2], 298.15 K, x2 = 0.5514	–	222.78	–
[2], 298.15 K, x2 = 0.6024	–	217.1	–
[2], 298.15 K, x2 = 0.6477	–	211.64	–
[2], 298.15 K, x2 = 0.6978	–	205.13	–
[2], 298.15 K, x2 = 0.7944	–	191.78	–
[2], 298.15 K, x2 = 0.845	–	184.48	–
[2], 298.15 K, x2 = 0.9016	–	176.75	–
[2], 298.15 K, x2 = 0.9486	–	170.87	–
[2], 308.15 K, x2 = 0.05262	–	281.91	–
[2], 308.15 K, x2 = 0.1012	–	275.81	–
[2], 308.15 K, x2 = 0.1514	–	269.66	–
[2], 308.15 K, x2 = 0.2001	–	263.87	–
[2], 308.15 K, x2 = 0.297	–	252.77	–
[2], 308.15 K, x2 = 0.4018	–	241.06	–
[2], 308.15 K, x2 = 0.452	–	235.55	–
[2], 308.15 K, x2 = 0.5014	–	230.02	–
[2], 308.15 K, x2 = 0.5514	–	224.27	–
[2], 308.15 K, x2 = 0.6024	–	218.19	–
[2], 308.15 K, x2 = 0.6477	–	212.66	–
[2], 308.15 K, x2 = 0.6978	–	206.01	–
[2], 308.15 K, x2 = 0.7944	–	192.97	–
[2], 308.15 K, x2 = 0.845	–	185.93	–
[2], 308.15 K, x2 = 0.9016	–	178.33	–
[2], 308.15 K, x2 = 0.9486	–	172.4	–
